Laboratory results: US8461077B2 (priority 2007, dated 2013)
Read-outs that look alike come from different tables or passages of the source.

Assays:
[1] = tested on: Plasmopara viticola; test: Greenhouse: activity against downy mildew of grapevine; type: in vivo; details: single active substance, grapevine leaves sprayed 1 day before inoculation
Experimental: (§1) The active substances, separately or individually, were prepared as a stock solution, using 25 mg of active substance, which was made up to 10 ml with a mixture of acetone and/or DMSO and the emulsifier Uniperol® EL (wetter based on ethoxylated alkylphenols, with emulsifying and disputing activity) in the volumetric solvent/emulsifier ratio of 99 to 1. Then, the mixtures were made up to 100 ml with water. This stock solution was diluted with the above-described solvent/emulsifier/water mixture to give the active substance concentration stated below. As an alternative, the active substances were used as a commercially available ready mix and made up to the active substance concentration stated with water.
(§2) The visually determined values for the percentage of affected leaf area were converted into efficacies as % of the untreated control:
(§3) The efficacy (E) is calculated as follows, using Abbot's formula: E=(1−α/β)·100 • α corresponds to the fungal disease level of the treated plants in % and • β corresponds to the fungal disease level of the untreated (control) plants in %
(§4) At an efficacy of 0 the disease level of the treated plants corresponds to that of the untreated control plants; at an efficacy of 100, the treated plants are not diseased.
(§5) The expected efficacies for active substance combinations were determined using the Colby formula (Colby, S. R. (Calculating synergistic and antagonistic responses of herbicide Combinations”, Weeds, 15, p. 20-22, 1967) and compared with the observed efficacies.
(§6) Colby Formula: E=x+y−x·y/100 • E expected efficacy, expressed in % of the untreated control, when employing the mixture of the active substances A and B at the concentrations a and b • x efficacy, expressed in % of the untreated control, when employing active substance A at concentration a • y efficacy, expressed in % of the untreated control, when employing active substance B at concentration b
Leaves of pot-grown grapevines were sprayed to runoff point with aqueous suspension at the active substance concentration stated below. On the next day, the abaxial sides of the leaves were inoculated with an aqueous sporangia suspension of Plasmopara viticola. Then, the grapevines were placed first for 24 hours into a water-vapor-saturated chamber at 24° C. and then for 5 days in the greenhouse at temperatures of between 20 and 30° C. After this time, the plants were returned into a humid chamber for 16 hours in order to accelerate the eruption of the sporangiophores. Then, the extent of the disease development on the abaxial sides of the leaves was determined visually.

[2] = tested on: Phytophthora infestans; type: cell-based; details: single active substance, microtiter plate, day 7, 405 nm
[3] = tested on: Septoria tritici; test: Microtiter test against the Septoria leaf spot pathogen (Septtr); type: cell-based; details: single active substance, microtiter plate, day 7, 405 nm
[4] = tested on: Phytophthora infestans; type: in vivo; details: single active substance, tomato, protective spray, rated after 6 days
[5] = tested on: Botrytis cinerea; test: Greenhouse: 1-day protective activity against gray mold on capsicum leaves; type: in vivo; details: single active substance, protective 1 day, rated after 5 days
Experimental: as §1, §2, §3, §4, §5, §6
Capsicum seedlings were allowed to develop 2-3 leaves properly and were then sprayed to runoff point with an aqueous suspension of the active substance concentration stated below. On the next day, the treated plants were inoculated with a spore suspension of Botrytis cinerea in a 2% strength Biomalz solution. Thereafter, the test plants were placed into a controlled-environment cabinet at 22 to 24° C. in the dark and with high atmospheric humidity. After 5 days, it was possible to visually determine the extent of the fungal disease level on the leaves in %.

[6] = tested on: Puccinia recondita; test: Greenhouse: protective activity against leaf rust of wheat; type: in vivo; details: single active substance
Experimental: as §1, §2
(§7) The efficacy (E) is calculated as follows, using Abbot's formula: E=(1−α/β)·100 • α corresponds to the fungal disease level of the treated plants in % and • β corresponds to the fungal disease level of the untreated (control) plants in % […]
(§8) The expected efficacies for active substance combinations were determined using the Colby formula (Colby, S. R. (Calculating synergistic and antagonistic responses of herbicide Combinations”, Weeds, 15, p. 20-22, 1967) and compared with the observed efficacies. […]

[7] = tested on: Puccinia recondita; test: Greenhouse: curative activity against leaf rust of wheat; type: in vivo; details: single active substance
Experimental: as §1, §2, §7, §8

[8] = tested on: Pyrenophora teres; test: Greenhouse: 1-day protective activity against barley net blotch disease; type: in vivo, Pyrenophora [syn. Drechslera] teres; details: single active substance, protective 1 day, rated after 6 days
Experimental: as §1, §2, §7, §8

[9] = tested on: Phakopsora pachyrhizi; test: Greenhouse: curative activity against soybean rust; type: in vivo; details: single active substance
Experimental: as §1, §2, §7, §8

[10] = 0.063 ppm, efficacy as % of untreated control (Abbot)

SMILES	Observed effect (%) ([2]; 1 ppm)	Observed effect (%) ([2]; 4 ppm)	Observed effect (%) ([2]; 16 ppm)	Observed effect (%) ([1]; 0.25 ppm)	also measured
CCC/C(=N\OCC)C1=C(O)CC(C2CCCSC2)CC1=O (stereo not drawn) [Cycloxydim (I.Ba), cycloxydim, reference compound]	9	5	13	–	Observed effect (%) ([1]; 0.063 ppm): 0%; Observed effect (%) ([3]; 63 ppm): 39%
COC[C@H](C)N(C(=O)CCl)c1c(C)csc1C [Dimethenamid-P (I.Ea)]	–	–	–	–	Observed effect (%) ([1]; 0.016 ppm): 0%
COCC(C)N(C(=O)CCl)c1c(C)csc1C (stereo not drawn) [Dimetheneamid-P (I.Ea), dimethenamid-P, reference compound]	–	–	–	–	Observed effect (%) [4, 10]: 22%; Observed effect (%) ([5]; 0.25 ppm): 0%
CP(=O)(O)CCC(N)C(=O)O (stereo not drawn) [Glufosinate (I.Ab)]	3	12	20	0	Observed effect (%) ([1]; 0.063 ppm): 0%
O=C(O)CNCP(=O)(O)O [Glyphosate (I.Aa), glyphosate, reference compound]	4	1	13	–	Observed effect (%) ([6]; 0.063 ppm): 0%; Observed effect (%) ([7]; 0.063 ppm, curative (sprayed 1 day after inoculation)): 0%; Observed effect (%) ([1]; 0.016 ppm): 0%
Cc1nc2ncnn2c(N)c1-c1ccc(Cl)c(Cl)c1 [II-1, 6-(3,4-dichlorophenyl)-5-methyl-[1,2,4]triazolo[1,5-a]pyrimidin-7-ylamine]	–	–	–	–	Observed effect (%) ([3]; 16 ppm): 12%
CCCCCCCCc1nc2ncnn2c(N)c1CC [II-6, 6-ethyl-5-octyl-[1,2,4]triazolo[1,5-a]pyrimidin-7-ylamine]	–	–	25	–	Observed effect (%) ([5]; 16 ppm): 0%; Observed effect (%) ([6]; 4 ppm): 0%; Observed effect (%) ([7]; 4 ppm, curative): 0%; Observed effect (%) ([1]; 16 ppm): 44%
CCCCCCCCc1c(CC)nc2ncnn2c1N [II-7, 5-ethyl-6-octyl-[1,2,4]triazolo[1,5-a]pyrimidin-7-ylamine]	7	–	–	–	Observed effect (%) ([1]; 1 ppm): 0%; Observed effect (%) ([1]; 4 ppm): 22%
CCc1nc2ncnn2c(N)c1CCC(C)CC(C)(C)C (stereo not drawn) [II-8, 5-ethyl-6-(3,5,5-trimethylhexyl)-[1,2,4]triazolo[1,5-a]pyrimidin-7-ylamine]	–	1	–	–	Observed effect (%) ([4]; 4 ppm): 22%; Observed effect (%) ([1]; 1 ppm): 33%
CCCCCCCCc1c(COC)nc2ncnn2c1N [II-10, 5-methoxymethyl-6-octyl-[1,2,4]triazolo[1,5-a]pyrimidin-7-ylamine]	–	–	–	–	Observed effect (%) ([4]; 16 ppm): 0%; Observed effect (%) ([5]; 16 ppm): 0%; Observed effect (%) ([8]; 16 ppm): 0%; Observed effect (%) ([9]; 16 ppm, curative): 0%; Observed effect (%) ([1]; 4 ppm): 0%; Observed effect (%) ([1]; 16 ppm): 44%; Observed effect (%) ([2]; 0.25 ppm): 10%
Cc1cnc(C2=NC(=O)C(C)(C(C)C)N2)c(C(=O)O)c1 (stereo not drawn) [Imazapic (I.Cd)]	4	4	12	0	Observed effect (%) ([1]; 0.063 ppm): 0%
CC(C)C1(C)N=C(c2ncccc2C(=O)O)NC1=O (stereo not drawn) [Imazapyr (I.Ca)]	1	9	8	–	Observed effect (%) ([1]; 0.063 ppm): 0%
CC(C)C1(C)N=C(c2nc3ccccc3cc2C(=O)O)NC1=O (stereo not drawn) [Imazaquin (I.Cc)]	8	11	23	0	–
CCc1cnc(C2=NC(C)(C(C)C)C(=O)N2)c(C(=O)O)c1 (stereo not drawn) [Imazethapyr (I.Cb)]	3	8	9	0	–
C[n+]1ccc(-c2cc[n+](C)cc2)cc1 [Paraquat (I.Fa), paraquat, reference compound]	4	5	7	–	Observed effect (%) [4, 10]: 0%; Observed effect (%) ([4]; 0.25 ppm): 0%; Observed effect (%) ([5]; 0.25 ppm): 0%; Observed effect (%) ([9]; 0.25 ppm, curative (sprayed 1 day after inoculation)): 0%
CCC(CC)Nc1c([N+](=O)[O-])cc(C)c(C)c1[N+](=O)[O-] [Pendimethalin (I.Da)]	7	16	29	0	Observed effect (%) ([2]; 63 ppm): 38%
CCC/C(=N\OCC)C1=C(O)CC(CC(C)SCC)CC1=O (stereo not drawn) [Sethoxydim (I.Bc), sethoxydim, reference compound]	2	5	14	0	Observed effect (%) ([8]; 0.25 ppm): 0%
